From US10857245B2, “Diagnostic imaging agent for early bone metastasis from cancer” (NIHON MEDI-PHYSICS CO., LTD., priority 2015, dated 2020)

Experiments:
[1] = test system: bone metastasis from breast cancer cells (MRMT-1); test: Triple tracer autoradiography in rat models of intertrabecular and osteolytic bone metastasis from breast cancer; assay type: in vivo; details: intertrabecular model day 6 and day 8, osteolytic model day 11 after transplantation; three tracers in an identical rat
Protocol: MRMT-1 suspension was prepared in the same way as the MRMT-1 suspension prepared in Example 1.
A model of intertrabecular bone metastasis was prepared in the same way as the rat model of osteolytic bone metastasis prepared in Example 1 except that a MRMT-1 suspension was injected into right and left saphenous arteries of the 12-week old male SD rat (Japan SLC, Inc.), which was used for the following experiment at day 6 or day 8 after the transplantation. The lesion appeared only in right hind limb of the model at day 6 after the transplantation and left limb of the model at day 8 after the transplantation.
A model of osteolytic bone metastasis was prepared in the same way as the rat model of osteolytic bone metastasis prepared in Example 1 except that the model was produced from 12-week old male SD rat (Japan SLC, Inc.), and used for the following experiment at day 11 after the transplantation. […]

[2] = test system: bone metastasis from rat breast cancer cell line MRMT-1; test: Autoradiography in rat model of osteolytic bone metastasis from breast cancer; assay type: in vivo; details: limb transplanted with MRMT-1 (right hind limb), day 12 to 14 after transplantation; tail vein; sacrifice after 30 minutes (^99mTc-HMDP 2 hours)
Protocol: A rat breast cancer cell line MRMT-1 was obtained from RIKEN BioResource Center. MRMT-1 was subcultured using a medium RPMI1640 (manufactured by Life Technologies Japan Ltd.) with 10% fetal bovine serum (American Type Culture Collection), 100 U/mL penicillin (manufactured by Life Technologies Japan Ltd.), and 0.1 mg/mL streptomycin (manufactured by Life Technologies Japan Ltd). On the day of transplantation, the medium in a culture vessel was removed and Trypsin-EDTA solution (manufactured by Life Technologies Japan Ltd.) maintained at 37° C. was added to the culture vessel, which was left to stand at 37° C. for about 5 minutes. After MRMT-1 was detached from the surface of the culture vessel, the above-mentioned medium was added to the culture vessel in an amount equal to that of Trypsin-EDTA solution. MRMT-1 was precipitated by centrifugation (800 rpm, 5 min) and its supernatant was removed, and a cell suspension in which MRMT-1 was suspended in Hank's buffer (manufactured by Life Technologies Japan Ltd.) at a concentration of 2.5×10^5 cells/mL was then produced.
An anti-inflammatory analgesic, Metacam 0.5% Solution for Injection (manufactured by Boehringer Ingelheim Vetmedica Japan Co., Ltd.) was subcutaneously injected into the groin of the right hind limb of 9-week-old male SD rat (Japan SLC, Inc.) at a rate of 0.2 mg/kg under isoflurane (manufactured by Mylan) anesthesia, and the skin in the groin was then incised. Next, the saphenous artery, the saphenous vein and the nerve parallel thereto were removed from muscles and isolated, and a surgical suture (3-0) was passed under the saphenous artery in the portion distal to the popliteal artery bifurcation. In addition, tissues around the superficial epigastric artery bifurcation were removed and a surgical suture (3-0) was passed under the femoral artery between the superficial epigastric artery bifurcation and the popliteal artery bifurcation (the portion slightly distal to the superficial epigastric artery bifurcation). Subsequently, a few drops of Papaverine Hydrochloride Injection 40 mg (manufactured by Nichi-Iko Pharmaceutical Co., Ltd.) was added dropwise around the saphenous artery to relax vascular smooth muscle, and each end of the surgical suture passed under the saphenous artery and the femoral artery was picked up with forceps, and the saphenous artery and the femoral artery were lifted to compress the arteries. A cotton swab was put under the saphenous artery to retain the saphenous artery, and an injection needle was inserted from the distal portion of the saphenous artery in the central direction, and MRMT-1 suspension (0.1 mL) was slowly injected. […]

[3] = test system: bone metastasis from breast cancer; details: human, in vivo; cited from earlier work
[4] = test system: bone metastasis from prostate cancer; test: PET/CT imaging of patient with prostate cancer, compared with bone scintigraphy and whole body contrast enhanced CT; details: untreated patient with prostate cancer; 263.1 MBq intravenously; whole body PET finished by 30 minutes

Compound | accumulation in the early focal site of bone metastasis (autoradiogram) [1] | accumulation in bone metastasis in the osteolytic lesion area (autoradiogram, arrow A) [2] | accumulation in bone metastasis prior to the formation of osteolytic lesion, not detectable in X-ray image (autoradiogram, arrow B) [2] | combined sensitivity of all sites [3] | detection rate of osteoblastic bone metastasis [3] | detection rate of osteolytic bone metastasis [3] | visualization of lesions which were not visualized on bone scintigraphy and whole body contrast enhanced CT [4]
technetium[^99mTc]hydroxymethylene diphosphonate [^99mTc-HMDP] | no accumulation | observed in neither | observed in neither | 78.2% | 100% | 70.0% | –
N[14C]1(C(=O)O)CC(F)C1 (stereo not drawn) [^14C-fluciclovine, trans-1-amino-3-fluorocyclobutane-1-[^14C]carboxylic acid] | accumulated | accumulated | also accumulated | – | – | – | –
N[C@]1(C(=O)O)C[C@@H](F)C1 [^18F-fluciclovine, trans-1-amino-[^18F]fluorocyclobutanecarboxylic acid] | – | – | – | – | – | – | visualized
